Entries after “also recorded” stand apart in the source; their conditions may differ. Structures can show the parent of a compound that is named as a salt. Marks after values point to notes of the source that are not given here.
What was measured:
male ICR mice [1] = assay: Hot-plate paw-withdrawal test after popliteal (peri-sciatic nerve block) injection; format: in vivo; details: for local anesthesia of the drug alone in the presence of 1:200,000 epinephrine: 0.125% bupivacaine or ibutilide (3.9 nmoles), each with 1:200,000 epinephrine; for local anesthesia of the drug alone (paw-withdrawal latency): 0.5% bupivacaine or ibutilide (3.9 nmoles) with vehicle, 60-min time-course, or bupivacaine dose-response at 10-min; for Potency ratio (95% C.L.): 10-min; for % Bupivacaine ED50 (95% C.L.): tested 10-min later
Description: Animals: Male ICR mice (25-30 gm) were obtained from Harlan Sprague Dawley. The mice were housed in groups of four to six and kept on a 12-h light/12-h dark cycle. Mice were tested during the light cycle; and the original groupings were maintained (i.e., mice were not recombined into new groups or isolated) to decrease infighting and consequent stress that could confound the results. Behavioral Procedures: Following the procedure of Leszczynska and Kau (1992), each mouse was placed on a ¼inch wire mesh screen, which was then inverted; a mouse with no motor defects walks in a characteristic circular pattern, grasping the mesh with each paw and then letting go. Mice that could not walk normally at baseline were not used for testing. […] Baseline paw withdrawal latencies ranged between 2- to 3-sec. After collecting baseline data, the mice were injected with vehicle, ibutilide, or bupivacaine mixed with vehicle or ibutilide. At the appropriate times, motor scores and test paw withdrawal latencies were obtained. A 20-sec cut-off was employed to prevent tissue damage on the hot-plate test. Injection Procedures: Each mouse was injected with drug solution using a 30 gauge,½ inch needle attached to a 1 ml syringe (needle and syringe from Becton Dickinson). The animals were gently restrained, while the limb to be injected was extended to expose the popliteal space, which is behind the knee of the mouse. The needle was inserted in the popliteal space, and 0.05 ml of drug solutions injected. The nerve bundle of the sciatic nerve passes through the popliteal space. Thus, the limb and paw distal to the injection is effectively anesthetized. The motor and sensory tests were then repeated at 5-min intervals for a 1-h period. […] Some mice could place their paw on the screen, but could not grasp the screen with their digits; this was determined to be an intermediate phase. The motor block was determined to be resolved when the mouse could walk on the inverted screen using both the leg and paw. Sensory blockade was assessed by measuring in seconds, the time the bupivacaine-injected paw remained on hot-plate surface before withdrawing it. The test was terminated if the cut-off of 20-sec occurred during the test procedure. For time-course studies, two-factor repeated measures analysis of variance followed by the post hoc Tukey's test was used to assess for significant increases in paw withdrawal latencies compared to baseline. In addition, the effect of ibutilide to enhance bupivacaine was assessed, and compared with the appropriate controls at each time point during the 60-min test period. For dose-response curves, the data was converted to the percentage of maximum possible effect, which was calculated as: % MPE=[(Test−Baseline)/(20 −Baseline)]×100. […] The absence of overlapping confidence limits was used to indicate significant differences in ED50 values between dose-response curves. Potency-ratio values with 95% confidence limits were calculated by the method of Colquhoun (1971). Drugs: Sterile isotonic saline was used to dissolve and dilute drug solutions. Bupivacaine HCl was purchased from the MCV Hospitals Pharmacy (Winthrop Pharmaceuticals, NY, N.Y. ). To assure consistency, the same vial of bupivacaine was used for all injections involving bupivicaine. The concentration was varied by either diluting with normal saline, or by freeze-drying and then reconstituting the material with normal saline. The same vial of bupivacaine with 1:200,000 epinephrine was used for the second set of experiments. The epinephrine dose was adjusted by adding epinephrine to maintain a constant concentration of epinephrine 2.76×10^−5 M. Ibutilide fumarate was purchased from the MCV Hospitals Pharmacy (Pharmacia & Upjohn Company of Kalamazoo, Mich.). The concentration of ibutilide was held constant at 3.9 nanomoles (nmoles) per mouse. Enhancement of Bupivacaine HCl with Ibutilide. Experiments were conducted to determine whether ibutilide would enhance the local anesthetic effects of bupivacaine. […]

male ICR mice [2] = assay: Radiant heat tail-flick test after subcutaneous infiltration of the tail (infiltration anesthesia); format: in vivo; details: for % Bupivacaine ED50 (95% C.L.): bupivacaine mixed with vehicle or sotalol (10 nmoles), infiltrated in mouse tail
Description: Methods of handling mice. Male ICR mice (Harlan Laboratories, Indianapolis, Ind.) weighing 27.0±0.4 g were housed 6 to a cage in animal care quarters maintained at 22±2 ° C. on a 12-h light-dark cycle. Food and water were available ad libitum. The mice were brought to a test room (22±2° C. , 12-h light-dark cycle), marked for identification and allowed 16-h to recover from transport and handling. The Institutional Animal Care and Use Committee at the Medical College of Virginia Campus of Virginia Commonwealth University approved all the procedures in this study.
The tail-flick test. The tail-flick test used to assess for infiltration anesthesia was developed by D'Amour and Smith (1941) and modified by Dewey et al (1970). The tail-flick device is designed to focus a light beam onto the site infiltrated with local anesthetic, without exposing non-injected tissue to the noxious radiant heat stimulus. The intensity was adjusted to yield baseline latencies of between 2- to 4-sec. A single baseline latency was obtained approximately 15-min before the mice were injected with drug. A 10-sec cut-off was used to prevent any potential tissue damage. In experiments testing for potential underlying infiltration anesthesia that was not observed with the higher heat stimulus, the intensity was reduced to yield baseline latencies of about 6-sec. A 12-sec cut-off was used in these experiments.
Subcutaneous infiltration of bupivacaine. Before infiltration of vehicle or drug, baseline tail-flick latencies were obtained by exposing the tail to noxious radiant heat at the site to be infiltrated with drug. The baseline average over the entire study was 3.1±0.1 sec. The mice were then restrained to allow us unencumbered access to the tail. A 26-gauge ⅝ needle was inserted approximately 1.0 to 1.3 cm longitudinally under the skin in the subcutaneous space in the dorsal aspect of the tail. The needle was attached to a 1-ml syringe (Becton Dickinson, Franklin Lakes, N.J. ) pre-filled with drug solution. A […] volume of drug solution was infiltrated, and the needle was left in place for 5-s to prevent leakage of injectate from the site after removing the needle. During injection, the solution dispersed around the circumference of the tail in a rostral-caudal direction of about 2- to 3-cm. A slight blanching of the skin that reversed within 1 to 2 min indicated the extent of the spread of solution. A non-toxic marking pen was used to mark the most rostral spread of solution. Tail-flick testing was conducted below the area marked on the tail. These methods are detailed in a previous report (Smith et al. 1997).
Experimental design. Sotalol was solubilized and then mixed with bupivacaine HCl for co-infiltration of the tail. The influence of increasing concentrations of sotalol on the ED50 dose of bupivacaine was also examined. Both baseline and test tail-flick latencies from each animal were converted into the percentage of maximum possible effect (% MPE) according to the method of Harris and Pierson (1964), which was calculated as: % MPE=[(test−baseline)/(10−baseline)]×100. The ordinate was % MPE, while the abscissa was expressed as the dose of sotalol. Complete bupivacaine dose-response curves were generated in the absence and presence of sotalol (10 nmole) for calculation of ED50 and potency ratio values. The ordinate was % MPE, while the abscissa was expressed as the % bupivacaine dose.
Statistical analyses: The Tail-Flick Latency (sec) values were analyzed with one factor ANOVA for experiments in which different concentrations of sotalol were tested with an ED50 dose of bupivacaine. A statistically significant F-value led to post hoc comparisons using the Tukey's test. The % MPE values for dose-response curves were analyzed in the following manner. ED50 values were calculated using least squares linear regression analysis of % MPE values followed by calculation of 95% confidence limits (C.L.) according to the method of Bliss (1967). […]

[3] = bupivacaine containing 1:200,000 epinephrine mixed with vehicle or ibutilide (3.9 nmoles), popliteal space, hot-plate
[4] = hot-plate 56° C., bupivacaine mixed with vehicle or ibutilide (3.9 nmoles), injected in popliteal space, no epinephrine

For `CCCCCCCN(CC)CCCC(O)c1ccc(NS(C)(=O)=O)cc1` (racemic) [Ibutilide, (±) N-[4-[4-(Ethylheptylamino)-1-hydroxybutyl]phenyl]methanesulfonamide (E)-2-butenedioate (2:1) salt], the “local anesthesia of the drug alone in the presence of 1:200,000 epinephrine” value (male ICR mice [1]; 1-h time-course) was “failed to elicit any anesthetic effects”, the “local anesthesia of the drug alone (paw-withdrawal latency)” value (male ICR mice [1]; no epinephrine) was “no anesthesia; also recorded: inactive” and the “Potency ratio (95% C.L.)” value (male ICR mice [1]; bupivacaine + 1:200,000 epinephrine + ibutilide (3.9 nmoles) vs vehicle control, hot-plate) was 6.8 (4.3 to 12.7)**. The “Potency ratio (95% C.L.)” value (male ICR mice [1]; bupivacaine + ibutilide (3.9 nmoles) vs bupivacaine + vehicle, hot-plate, no epinephrine) was 2.8 (1.9 to 3.8)**, the “% Bupivacaine ED50 (95% C.L.)” value (male ICR mice [1]; [3]) was 0.05% (0.04 to 0.06)** and the “% Bupivacaine ED50 (95% C.L.)” value (male ICR mice [1]; [4]) was 0.24% (0.19 to 0.30)**. The “enhancement of the local anesthetic effects of 0.5% bupivacaine” value (male ICR mice [1]; ibutilide 3.9 nmoles mixed with 0.5% bupivacaine, 60-min time-course, no epinephrine) was “markedly enhanced; also recorded: significantly increased”, the “duration of enhancement of the local anesthetic effects of 0.5% bupivacaine” value (male ICR mice [1]; ibutilide 3.9 nmoles mixed with 0.5% bupivacaine, tested every 5 min for 1-h) was 35 min and the “enhancement of the amount (efficacy) of 0.125% bupivacaine + 1:200,000 epinephrine” value (male ICR mice [1]; ibutilide 3.9 nmoles, 1-h time-course) was “greatly increased”. The “increase in relative potency of bupivacaine+1:200,000 epinephrine” value (male ICR mice [1]; in the presence of ibutilide (3.9 nmoles), hot-plate) was 6.8 fold and the “increase in potency of bupivacaine” value (male ICR mice [1]; in the presence of ibutilide (3.9 nmoles), hot-plate, no epinephrine) was 2.8 fold.
With `CCCCN1CCCCC1C(=O)Nc1c(C)cccc1C` (stereo not shown) [bupivacaine] the “local anesthesia of the drug alone in the presence of 1:200,000 epinephrine” value (male ICR mice [1]; 1-h time-course) was “elicited local anesthesia”, the “local anesthesia of the drug alone (paw-withdrawal latency)” value (male ICR mice [1]; no epinephrine) was “mild level of anesthesia; also recorded: dose-dependent anesthesia” and the “% Bupivacaine ED50 (95% C.L.)” value (male ICR mice [1]; [3]) was 0.31% (0.22 to 0.44). For the same compound, the “% Bupivacaine ED50 (95% C.L.)” value (male ICR mice [1]; [4]) was 0.67% (0.59 to 0.77) and the “% Bupivacaine ED50 (95% C.L.)” value (male ICR mice [2]; tail-flick 30-min later) was 0.11% (0.08 to 0.15).
For `CNC[C@H](O)c1ccc(O)c(O)c1` [epinephrine], the “effect of 1:200,000 epinephrine on the efficacy of 0.125% bupivacaine” value (male ICR mice [1]; time-course experiments, hot-plate) was “increased”.
`CC(C)NCC(O)c1ccc(NS(C)(=O)=O)cc1.Cl` (stereo not shown) [Sotalol, N-[4-[1-hydroxy-2-[(1-methylethyl)amino]ethyl]phenyl]methanesulfonamide monohydrochloride] was tested, and the “Potency ratio (95% C.L.)” value (male ICR mice [2]; bupivacaine + sotalol (10 nmoles) vs bupivacaine + vehicle, tail-flick, 30-min) was 2.7 (1.6 to 4.5), the “% Bupivacaine ED50 (95% C.L.)” value (male ICR mice [2]; tail-flick 30-min later) was 0.04% (0.03 to 0.06)** and the “increase in potency of bupivacaine” value (male ICR mice [2]; in the presence of sotalol (10 nmoles), tail-flick, 30-min) was 2.7 fold. The “enhancement of the anesthetic effects of an ED50 dose of bupivacaine (0.12%)” value (male ICR mice [2]; increasing doses of sotalol co-infiltrated, tail-flick 30-min later) was “enhanced in a dose-dependent fashion” and the “anesthetic effect of the drug alone” value (male ICR mice [2]; sotalol alone, tail infiltration, tail-flick 30-min later, monohydrochloride) was “inactive; also recorded: no anesthetic effects”.
